In ChEMBL document CHEMBL1152560, “Substituted 2-arylbenzothiazoles as kinase inhibitors: hit-to-lead optimization” (Bioorg Med Chem, 2009):

Key:
[1] = target: Casein kinase II subunit alpha (Homo sapiens) (UniProt P68400); assay: Residual activity of CK2alpha1 at 1 uM by microplate scintillation counting
[2] = target: Serine/threonine-protein kinase PLK3 (Homo sapiens) (UniProt Q9H4B4); assay: Residual activity of PLK3 at 1 uM by microplate scintillation counting
[3] = target: T1, Ephrin type-B receptor 2 (Homo sapiens) (UniProt P29323); assay: Residual activity of EPHB2 at 10 uM by microplate scintillation counting
T1 sequence (whole entry): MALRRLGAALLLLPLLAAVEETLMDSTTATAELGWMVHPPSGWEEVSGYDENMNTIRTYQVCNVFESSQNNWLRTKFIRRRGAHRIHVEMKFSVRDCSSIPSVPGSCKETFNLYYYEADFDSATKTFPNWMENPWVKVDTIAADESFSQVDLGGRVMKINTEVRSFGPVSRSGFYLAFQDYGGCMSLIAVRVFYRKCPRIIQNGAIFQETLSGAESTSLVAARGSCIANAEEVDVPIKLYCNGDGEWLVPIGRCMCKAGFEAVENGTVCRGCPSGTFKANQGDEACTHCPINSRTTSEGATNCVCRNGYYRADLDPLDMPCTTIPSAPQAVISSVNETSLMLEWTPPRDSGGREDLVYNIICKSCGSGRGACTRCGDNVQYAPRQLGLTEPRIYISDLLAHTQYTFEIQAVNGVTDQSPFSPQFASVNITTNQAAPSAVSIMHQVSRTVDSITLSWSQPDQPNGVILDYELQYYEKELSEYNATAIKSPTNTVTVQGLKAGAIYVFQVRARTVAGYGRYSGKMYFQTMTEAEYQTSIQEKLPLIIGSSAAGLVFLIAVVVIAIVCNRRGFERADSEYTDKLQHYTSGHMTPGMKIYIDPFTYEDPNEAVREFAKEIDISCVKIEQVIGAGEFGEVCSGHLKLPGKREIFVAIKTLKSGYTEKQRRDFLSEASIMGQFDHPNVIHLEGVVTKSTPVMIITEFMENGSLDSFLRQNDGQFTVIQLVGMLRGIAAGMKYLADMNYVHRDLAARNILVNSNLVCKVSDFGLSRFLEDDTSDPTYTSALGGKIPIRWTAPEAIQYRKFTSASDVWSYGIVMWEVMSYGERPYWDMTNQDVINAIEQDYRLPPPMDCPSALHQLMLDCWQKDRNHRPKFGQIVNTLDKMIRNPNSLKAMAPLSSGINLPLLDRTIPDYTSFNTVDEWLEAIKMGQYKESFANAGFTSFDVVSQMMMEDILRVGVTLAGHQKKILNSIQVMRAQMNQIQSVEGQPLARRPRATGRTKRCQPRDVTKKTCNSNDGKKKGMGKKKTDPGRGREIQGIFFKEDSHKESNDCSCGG

[4] = target: RAC-beta serine/threonine-protein kinase (Homo sapiens) (UniProt P31751); assay: Residual activity of AKT2 at 1 uM by microplate scintillation counting
Sequence of RAC-beta serine/threonine-protein kinase (Homo sapiens) (P31751 whole entry): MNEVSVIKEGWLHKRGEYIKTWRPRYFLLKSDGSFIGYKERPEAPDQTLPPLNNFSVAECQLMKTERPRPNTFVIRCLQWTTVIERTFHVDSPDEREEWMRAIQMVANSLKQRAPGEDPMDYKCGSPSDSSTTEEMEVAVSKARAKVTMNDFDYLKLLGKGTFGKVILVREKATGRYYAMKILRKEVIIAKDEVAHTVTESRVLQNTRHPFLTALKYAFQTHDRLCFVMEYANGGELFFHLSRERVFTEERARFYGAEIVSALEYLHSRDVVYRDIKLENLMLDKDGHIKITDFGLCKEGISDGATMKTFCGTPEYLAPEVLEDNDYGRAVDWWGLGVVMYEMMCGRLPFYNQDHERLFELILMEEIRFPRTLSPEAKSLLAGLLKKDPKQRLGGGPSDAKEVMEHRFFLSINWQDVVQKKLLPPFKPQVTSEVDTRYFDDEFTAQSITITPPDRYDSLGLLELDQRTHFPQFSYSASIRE

[5] = target: Calcium/calmodulin-dependent protein kinase type 1D (Homo sapiens) (UniProt Q8IU85); assay: Residual activity of CAMK1D at 10 uM by microplate scintillation counting
Sequence of Calcium/calmodulin-dependent protein kinase type 1D (Homo sapiens) (Q8IU85 whole entry, looked up): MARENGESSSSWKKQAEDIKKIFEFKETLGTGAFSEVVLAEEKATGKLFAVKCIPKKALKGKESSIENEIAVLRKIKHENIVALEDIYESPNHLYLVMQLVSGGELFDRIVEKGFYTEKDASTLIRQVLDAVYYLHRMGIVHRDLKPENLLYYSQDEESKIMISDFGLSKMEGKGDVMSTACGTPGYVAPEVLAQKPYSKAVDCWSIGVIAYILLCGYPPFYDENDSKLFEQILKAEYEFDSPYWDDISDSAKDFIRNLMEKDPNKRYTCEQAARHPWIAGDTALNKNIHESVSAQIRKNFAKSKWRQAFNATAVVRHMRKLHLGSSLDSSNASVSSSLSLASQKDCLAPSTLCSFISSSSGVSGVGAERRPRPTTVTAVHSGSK

[6] = target: Tyrosine-protein kinase Lyn (Homo sapiens) (UniProt P07948); assay: Residual activity of LYN at 10 uM by microplate scintillation counting
Sequence of Tyrosine-protein kinase Lyn (Homo sapiens) (P07948 2-512 limits assumed): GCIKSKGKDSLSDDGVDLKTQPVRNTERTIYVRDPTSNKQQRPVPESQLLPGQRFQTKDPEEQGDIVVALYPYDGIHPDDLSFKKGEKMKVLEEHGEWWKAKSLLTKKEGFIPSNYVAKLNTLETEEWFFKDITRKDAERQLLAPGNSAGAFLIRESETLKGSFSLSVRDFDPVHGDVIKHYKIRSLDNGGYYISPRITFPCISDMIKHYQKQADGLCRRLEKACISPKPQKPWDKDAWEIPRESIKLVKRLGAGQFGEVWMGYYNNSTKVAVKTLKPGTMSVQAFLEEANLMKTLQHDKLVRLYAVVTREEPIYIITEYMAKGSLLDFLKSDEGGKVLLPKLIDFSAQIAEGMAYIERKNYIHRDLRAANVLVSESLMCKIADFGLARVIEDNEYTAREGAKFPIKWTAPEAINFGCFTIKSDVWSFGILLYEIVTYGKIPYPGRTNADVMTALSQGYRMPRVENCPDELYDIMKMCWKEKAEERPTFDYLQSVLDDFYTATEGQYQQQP

[7] = target: Serine/threonine-protein kinase pim-1 (Homo sapiens) (UniProt P11309); assay: Residual activity of PIM1 at 0.1 uM by microplate scintillation counting
Sequence of Serine/threonine-protein kinase pim-1 (Homo sapiens) (P11309 whole entry, looked up): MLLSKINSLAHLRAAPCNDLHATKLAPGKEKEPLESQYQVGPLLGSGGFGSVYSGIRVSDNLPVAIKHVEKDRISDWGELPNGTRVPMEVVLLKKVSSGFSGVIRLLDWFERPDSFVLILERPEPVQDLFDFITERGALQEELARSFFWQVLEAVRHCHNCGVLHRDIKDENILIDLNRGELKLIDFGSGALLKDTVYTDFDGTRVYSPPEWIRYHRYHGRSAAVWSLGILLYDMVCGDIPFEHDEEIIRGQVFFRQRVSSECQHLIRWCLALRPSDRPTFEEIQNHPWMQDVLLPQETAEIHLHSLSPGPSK

[8] = target: T2, Serine/threonine-protein kinase TBK1 (Homo sapiens) (UniProt Q9UHD2); assay: Residual activity of TBK1 at 10 uM by microplate scintillation counting
T2 sequence (whole entry): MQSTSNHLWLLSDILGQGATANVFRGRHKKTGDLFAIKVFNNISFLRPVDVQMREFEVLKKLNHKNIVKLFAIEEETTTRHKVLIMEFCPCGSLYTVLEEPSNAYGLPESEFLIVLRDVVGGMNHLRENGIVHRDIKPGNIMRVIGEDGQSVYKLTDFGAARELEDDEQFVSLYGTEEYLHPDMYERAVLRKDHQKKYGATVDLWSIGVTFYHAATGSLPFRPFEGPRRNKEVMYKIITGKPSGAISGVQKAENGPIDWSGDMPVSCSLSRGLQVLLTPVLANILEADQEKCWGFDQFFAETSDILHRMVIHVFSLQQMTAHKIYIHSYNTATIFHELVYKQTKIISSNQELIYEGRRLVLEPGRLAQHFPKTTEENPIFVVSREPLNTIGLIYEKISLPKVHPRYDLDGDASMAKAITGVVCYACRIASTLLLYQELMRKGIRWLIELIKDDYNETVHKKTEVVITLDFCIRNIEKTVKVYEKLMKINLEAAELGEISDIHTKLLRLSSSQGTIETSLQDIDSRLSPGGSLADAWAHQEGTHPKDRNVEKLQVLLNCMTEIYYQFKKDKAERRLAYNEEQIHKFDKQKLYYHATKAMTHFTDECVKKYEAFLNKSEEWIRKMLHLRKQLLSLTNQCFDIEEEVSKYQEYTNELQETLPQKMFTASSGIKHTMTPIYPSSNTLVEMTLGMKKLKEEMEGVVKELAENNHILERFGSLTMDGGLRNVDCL

Sequence of Casein kinase II subunit alpha (Homo sapiens) (P68400 whole entry, looked up): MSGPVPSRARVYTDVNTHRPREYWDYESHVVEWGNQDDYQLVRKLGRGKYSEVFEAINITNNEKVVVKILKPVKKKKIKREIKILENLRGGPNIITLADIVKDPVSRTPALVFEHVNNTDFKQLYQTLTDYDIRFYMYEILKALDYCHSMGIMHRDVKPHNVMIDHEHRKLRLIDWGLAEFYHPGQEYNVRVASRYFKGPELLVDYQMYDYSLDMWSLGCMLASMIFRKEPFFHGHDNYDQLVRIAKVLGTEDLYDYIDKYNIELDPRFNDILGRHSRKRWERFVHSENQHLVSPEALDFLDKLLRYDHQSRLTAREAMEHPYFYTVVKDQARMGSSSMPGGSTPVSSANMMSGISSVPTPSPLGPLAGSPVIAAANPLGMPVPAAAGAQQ
Sequence of Serine/threonine-protein kinase PLK3 (Homo sapiens) (Q9H4B4 whole entry, looked up): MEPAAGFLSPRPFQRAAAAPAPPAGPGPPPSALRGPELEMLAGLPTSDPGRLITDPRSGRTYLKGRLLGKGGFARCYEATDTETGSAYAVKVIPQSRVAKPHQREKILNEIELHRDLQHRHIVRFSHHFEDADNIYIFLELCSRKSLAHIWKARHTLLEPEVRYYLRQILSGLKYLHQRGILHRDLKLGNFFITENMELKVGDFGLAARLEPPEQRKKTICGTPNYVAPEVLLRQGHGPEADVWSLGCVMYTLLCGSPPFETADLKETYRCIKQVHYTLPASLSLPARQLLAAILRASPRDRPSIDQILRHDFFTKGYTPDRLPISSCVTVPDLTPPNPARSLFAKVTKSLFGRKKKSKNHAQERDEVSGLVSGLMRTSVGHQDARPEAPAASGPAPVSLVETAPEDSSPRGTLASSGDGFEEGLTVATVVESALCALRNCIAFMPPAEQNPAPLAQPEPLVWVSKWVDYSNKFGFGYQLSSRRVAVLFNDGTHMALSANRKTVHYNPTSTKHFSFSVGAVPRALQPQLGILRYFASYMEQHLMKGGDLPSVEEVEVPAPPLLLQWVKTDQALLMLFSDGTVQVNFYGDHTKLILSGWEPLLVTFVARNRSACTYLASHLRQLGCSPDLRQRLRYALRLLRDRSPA

SMILES	residual activity [1] [%]	residual activity [2] [%]	residual activity [3] [%]	residual activity [4] [%]	residual activity [5] [%]	residual activity [6] [%]	residual activity [7] [%]	residual activity [8] [%]
COc1cc2c(Oc3ccc(-c4nc5ccccc5s4)cc3F)ncnc2cc1OCCCN1CCN(C)CC1	108	94	16	113	64	36	76	141
COc1cc2c(Oc3ccc(-c4nc5ccccc5s4)cc3)ncnc2cc1OCCCN1CCCC1	94	101	35	91	100	142	95	143
COc1cc2c(Oc3ccc(-c4nc5ccccc5s4)cc3)ncnc2cc1OCCCN1CCN(C)CC1	90	100	18	83	82	112	100	171
